Reference: patent US12091425B2 (AMGEN INC., priority 2016, dated 2024)

Biological target: T1, Mcl-1/Bim interaction, recombinant human Mcl-1 (171-327) (Homo sapiens, UniProt Q07820)
T1 construct: made in house
Experiment: Cell free Mcl-1: Bim Affinity Assay (Mcl-1 HTRF)
Assay type: binding
Procedure, shortened: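 Read-out is time-resolved FRET after overnight incubation, using a biotin-labelled peptide from human Bim (51-76) as the binding partner; IC50 was derived from competition curves.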

[1] = cell free Mcl-1:Bim TR-FRET, recombinant human Mcl-1 (171-327)
[2] = TR-FRET, 0.1 nM Mcl-1 (171-327), 0.05 nM biotin-Bim (51-76)

T1 sequence (Q07820 171-327): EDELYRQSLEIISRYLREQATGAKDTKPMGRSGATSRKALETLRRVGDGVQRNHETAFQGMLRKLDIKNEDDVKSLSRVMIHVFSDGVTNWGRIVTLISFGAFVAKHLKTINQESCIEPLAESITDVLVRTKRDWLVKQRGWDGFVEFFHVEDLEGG

IC50 [2] [nM] | Compound | IC50 [1] [nM]
 | O=C1NS(=O)(=O)C/C=C/C[C@@H](O)C[C@@H]2CC[C@H]2CN2C[C@@]3(CCCc4cc(Cl)ccc43)COc3ccc1cc32 (single isomer, unassigned) [Example 912] | 7.78
 | O=C1NS(=O)(=O)CC=CCC(O)CC2CCC2CN2CC3(CCCc4cc(Cl)ccc43)COc3ccc1cc32 (single isomer, unassigned) [Example 913] | 6.1
 | O=C1NS(=O)(=O)C/C=C\C[C@@H](O)C[C@@H]2CC[C@H]2CN2C[C@@]3(CCCc4cc(Cl)ccc43)COc3ccc1cc32 (single isomer, unassigned) [Example 914] | 1.87
 | O=C1NS(=O)(=O)/C=C/COC[C@@H](O)[C@@H]2CC[C@H]2CN2C[C@@]3(CCCc4cc(Cl)ccc43)COc3ccc1cc32 (single isomer, unassigned) [Example 917, (3R,6R,7S,11E,22S)-6′-chloro-7-hydroxy-3′,4′-dihydro-2′H,15H-spiro[9,20-dioxa-13-thia-1,14-diazatetracyclo[14.7.2.0^3,6.0^19,24]pentacosa-11,16,18,24-tetraene-22,1′-naphthalen]-15-one 13,13-dioxide or (3R,6R,7R,11E, 22S)-6′-chloro-7-hydroxy-3′,4′-dihydro-2′H,15H-spiro[9,20-dioxa-13-thia-1,14-diazatetracyclo[14.7.2.0^3,6.0^19,24]pentacosa-11,16,18,24-tetraene-22,1′-naphthalen]-15-one 13,13-dioxide] | 4.11
 | O=C1NS(=O)(=O)CCCOC[C@@H](O)[C@@H]2CC[C@H]2CN2C[C@@]3(CCCc4cc(Cl)ccc43)COc3ccc1cc32 (single isomer, unassigned) [Example 923, (3R,6R,7S,22S)-6′-chloro-7-hydroxy-3′,4′-dihydro-2′H,15H-spiro[9,20-dioxa-13-thia-1,14-diazatetracyclo[14.7.2.0^3,6.0^19,24]pentacosa-16,18,24-triene-22,1′-naphthalen]-15-one 13,13-dioxide or (3R,6R,7R,22S)-6′-chloro-7-hydroxy-3′,4′-dihydro-2′H,15H-spiro[9,20-dioxa-13-thia-1,14-diazatetracyclo[14.7.2.0^3,6.0^19,24]pentacosa-16,18,24-triene-22,1′-naphthalen]-15-one 13,13-dioxide] | 17.8
 | O=C1NS(=O)(=O)CCC[C@]2(O)CCO[C@H](C2)[C@@H]2CC[C@H]2CN2C[C@@]3(CCCc4cc(Cl)ccc43)COc3ccc1cc32 (single isomer, unassigned) [Example 924] | 5.07
 | CN[C@H]1CCCCCS(=O)(=O)NC(=O)c2ccc3c(c2)N(C[C@@H]2CC[C@H]21)C[C@@]1(CCCc2cc(Cl)ccc21)CO3 (single isomer, unassigned) [Example 927, (1S,3′R,6′R,7′S)-6-chloro-7′-(methylamino)-3,4-dihydro-2H,15′H-spiro[naphthalene-1,22′-[20]oxa[13]thia[1,14]diazatetracyclo[14.7.2.0^3,6.0^19,24]pentacosa [16,18,24]trien]-15′-one 13′,13′-dioxide or (1S,3′R,6′R,7′R)-6-chloro-7′-(methylamino)-3,4-dihydro-2H,15′H-spiro[naphthalene-1,22′-[20]oxa[13]thia[1,14]diazatetracyclo[14.7.2.0^3,6.0^19,24]pentacosa [16,18,24]trien]-15′-one 13′,13′-dioxide] | 46.2
 | O=C1NS(=O)(=O)CCCCC[C@H](NCCO)[C@@H]2CC[C@H]2CN2C[C@@]3(CCCc4cc(Cl)ccc43)COc3ccc1cc32 (single isomer, unassigned) [Example 929] | 40
 | O=C1NS(=O)(=O)CCCCC[C@@H](NCC(F)(F)F)[C@@H]2CC[C@H]2CN2C[C@@]3(CCCc4cc(Cl)ccc43)COc3ccc1cc32 (single isomer, unassigned) [Example 930] | 19.6
 | O=C1NS(=O)(=O)CCCCC[C@@H](NO)[C@@H]2CC[C@H]2CN2C[C@@]3(CCCc4cc(Cl)ccc43)COc3ccc1cc32 (single isomer, unassigned) [Example 933, (1S,3′R,6′R,7′R)-6-chloro-7′-(hydroxyamino)-3,4-dihydro-2H,15′H-spiro[naphthalene-1,22′-[20]oxa[13]thia[1,14]diazatetracyclo[14.7.2.0^3,6.0^19,24]pentacosa [16,18,24]trien]-15′-one 13′,13′-dioxide or (1S,3′R,6′R,7′S)-6-chloro-7′-(hydroxyamino)-3,4-dihydro-2H,15′H-spiro[naphthalene-1,22′-[20]oxa[13]thia[1,14]diazatetracyclo[14.7.2.0^3,6.0^19,24]pentacosa [16,18,24]trien]-15′-one 13′,13′-dioxide] | 15
 | CC(=O)N[C@@H]1CCCCCS(=O)(=O)NC(=O)c2ccc3c(c2)N(C[C@@H]2CC[C@H]21)C[C@@]1(CCCc2cc(Cl)ccc21)CO3 (single isomer, unassigned) [Example 935, N-((1S,3′R,6′R,7′R)-6-chloro-13′,13′-dioxido-15′-oxo-3,4-dihydro-2H-spiro[naphthalene-1,22′-[20]oxa[13]thia[1,14]diazatetracyclo[14.7.2.0^3,6.0^19,24]pentacosa [16,18,24]trien]-7′-yl)acetamide or N-((1S,3′R,6′R,7′S)-6-chloro-13′,13′-dioxido-15′-oxo-3,4-dihydro-2H-spiro[naphthalene-1,22′-[20]oxa[13]thia[1,14]diazatetracyclo[14.7.2.0^3,6.0^19,24]pentacosa [16,18,24]trien]-7′-yl)acetamide] | 2.07
 | CC(C)C(=O)N[C@@H]1CCCCCS(=O)(=O)NC(=O)c2ccc3c(c2)N(C[C@@H]2CC[C@H]21)C[C@@]1(CCCc2cc(Cl)ccc21)CO3 (single isomer, unassigned) [Example 936] | 4.74
 | O=C1NS(=O)(=O)CCCCC[C@@H](NC(=O)C2CC2)[C@@H]2CC[C@H]2CN2C[C@@]3(CCCc4cc(Cl)ccc43)COc3ccc1cc32 (single isomer, unassigned) [Example 937] | 4.75
 | CS(=O)(=O)N[C@@H]1CCCCCS(=O)(=O)NC(=O)c2ccc3c(c2)N(C[C@@H]2CC[C@H]21)C[C@@]1(CCCc2cc(Cl)ccc21)CO3 (single isomer, unassigned) [Example 938] | 5.94
 | O=C(CO)N[C@@H]1CCCCCS(=O)(=O)NC(=O)c2ccc3c(c2)N(C[C@@H]2CC[C@H]21)C[C@@]1(CCCc2cc(Cl)ccc21)CO3 (single isomer, unassigned) [Example 939] | 6.67
 | CC(=O)N(C)[C@H]1CCCCCS(=O)(=O)NC(=O)c2ccc3c(c2)N(C[C@@H]2CC[C@H]21)C[C@@]1(CCCc2cc(Cl)ccc21)CO3 (single isomer, unassigned) [Example 940] | 18.6
 | CC(=O)N(C)[C@@H]1CCCCCS(=O)(=O)NC(=O)c2ccc3c(c2)N(C[C@@H]2CC[C@H]21)C[C@@]1(CCCc2cc(Cl)ccc21)CO3 (single isomer, unassigned) [Example 941] | 8.33
 | CN(C(=O)C1CC1)C1CCCCCS(=O)(=O)NC(=O)c2ccc3c(c2)N(CC2CCC21)CC1(CCCc2cc(Cl)ccc21)CO3 (single isomer, unassigned) [Example 942] | 36.4
 | CN(C(=O)C1CC1)[C@@H]1CCCCCS(=O)(=O)NC(=O)c2ccc3c(c2)N(C[C@@H]2CC[C@H]21)C[C@@]1(CCCc2cc(Cl)ccc21)CO3 (single isomer, unassigned) [Example 943] | 16.2
 | O=C1NS(=O)(=O)[C@H]2CCN(C2)C(=O)CC[C@@H]2CC[C@H]2CN2C[C@@]3(CCCc4cc(Cl)ccc43)COc3ccc1cc32 (single isomer, unassigned) [Example 946] | 4.15
 | O=C1NS(=O)(=O)CCC[C@@H]2C[C@H]2[C@H](O)[C@@H]2CC[C@H]2CN2C[C@@]3(CCCc4cc(Cl)ccc43)COc3ccc1cc32 (single isomer, unassigned) [Example 950] | 1.49
 | C[C@@H]1CC[C@@H]2C[C@H]2[C@H](O)[C@@H]2CC[C@H]2CN2C[C@@]3(CCCc4cc(Cl)ccc43)COc3ccc(cc32)C(=O)NS1(=O)=O (single isomer, unassigned) [Example 951] | 13.1
4.42 | O=C1NS(=O)(=O)[C@H]2COC[C@H]2C/C=C/[C@H](O)[C@@H]2CC[C@H]2CN2C[C@@]3(CCCc4cc(Cl)ccc43)COc3ccc1cc32 (single isomer, unassigned) [Example 1029] | 
35.8 | C[C@@H]1[C@H](C)/C=C/[C@H](O)[C@@H]2CC[C@H]2CN2C[C@@]3(CCCc4cc(Cl)ccc43)COc3ccc(cc32)C(=O)NS(=O)(=O)[C@H]1C (single isomer, unassigned) [Example 1044] | 
0.557 | CC[C@@H]1CC/C=C/[C@@H](NC(C)=O)[C@@H]2CC[C@H]2CN2C[C@@]3(CCCc4cc(Cl)ccc43)COc3ccc(cc32)C(=O)NS1(=O)=O (single isomer, unassigned) [Example 1078] | 
5.48 | CC[C@@H]1CC/C=C\[C@@H](NC(C)=O)[C@@H]2CC[C@H]2CN2C[C@@]3(CCCc4cc(Cl)ccc43)COc3ccc(cc32)C(=O)NS1(=O)=O (single isomer, unassigned) [Example 1079] | 
0.874 | O=C1NS(=O)(=O)C[C@@H](CO)C/C=C/[C@@H](O)[C@@H]2CC[C@H]2CN2C[C@@]3(CCCc4cc(Cl)ccc43)COc3ccc1cc32 (single isomer, unassigned) [Example 1089] | 
2.77 | O=C1NS(=O)(=O)C[C@H](CO)C/C=C/[C@@H](O)[C@@H]2CC[C@H]2CN2C[C@@]3(CCCc4cc(Cl)ccc43)COc3ccc1cc32 (single isomer, unassigned) [Example 1090] | 

Compound | IC50 [2] [nM] | IC50 [1] [nM]
O=C1NS(=O)(=O)C(CCOC(F)(F)F)CC/C=C/[C@H](O)[C@@H]2CC[C@H]2CN2C[C@@]3(CCCc4cc(Cl)ccc43)COc3ccc1cc32 (single isomer, unassigned) [Example 1012] | 0.698 | 
O=C1NS(=O)(=O)[C@@H](CCOC(F)(F)F)CC/C=C/[C@H](O)[C@@H]2CC[C@H]2CN2C[C@@]3(CCCc4cc(Cl)ccc43)COc3ccc1cc32 (single isomer, unassigned) [Example 1013] | 18.1 | 
